The record followed here is ChEMBL document CHEMBL3400043, “Design, synthesis and biological evaluation of GY3-based derivatives for anti-type 2 diabetes activity” (Bioorg Med Chem Lett, 2015).

Data set [1] has as its system Mus musculus. In words: Hypoglycemic effect in eight week old female db/db mouse assessed as reduction in blood glucose level at 30 mg/kg, intragastric for 1 week. Format: functional. The following applies: po, 168 h.
In data set [2] the test system is Mus musculus. Description: Hypoglycemic effect in eight week old female db/db mouse assessed as reduction in fasting triglyceride level at 30 mg/kg, intragastric for 3 weeks. Format: functional, organism-based. More on the design: dose 30 mg/kg.
The subject of data set [3] is Mus musculus. Description: Toxicity in eight week old female db/db mouse assessed as body weight increase at 30 mg/kg, intragastric for 3 weeks. The format is organism-based. Also on record: dose 30 mg/kg, route intragastric. The following applies: in vivo, po, 504 h.
Data set [4] has as its system Mus musculus. In words: Hypoglycemic effect in eight week old female db/db mouse assessed as reduction in blood glucose level at 30 mg/kg, intragastric for 2 weeks. Format: functional. The note with it: po, 336 h.
Data set [5] concerns Mus musculus. In words: Hypoglycemic effect in eight week old female db/db mouse assessed as reduction in blood glucose level at 30 mg/kg, intragastric for 3 weeks. Format: functional. The note with it: po, 504 h.
Data set [6] addresses T1, Peroxisome proliferator-activated receptor gamma (Homo sapiens) (UniProt P37231).
T1 sequence (whole entry): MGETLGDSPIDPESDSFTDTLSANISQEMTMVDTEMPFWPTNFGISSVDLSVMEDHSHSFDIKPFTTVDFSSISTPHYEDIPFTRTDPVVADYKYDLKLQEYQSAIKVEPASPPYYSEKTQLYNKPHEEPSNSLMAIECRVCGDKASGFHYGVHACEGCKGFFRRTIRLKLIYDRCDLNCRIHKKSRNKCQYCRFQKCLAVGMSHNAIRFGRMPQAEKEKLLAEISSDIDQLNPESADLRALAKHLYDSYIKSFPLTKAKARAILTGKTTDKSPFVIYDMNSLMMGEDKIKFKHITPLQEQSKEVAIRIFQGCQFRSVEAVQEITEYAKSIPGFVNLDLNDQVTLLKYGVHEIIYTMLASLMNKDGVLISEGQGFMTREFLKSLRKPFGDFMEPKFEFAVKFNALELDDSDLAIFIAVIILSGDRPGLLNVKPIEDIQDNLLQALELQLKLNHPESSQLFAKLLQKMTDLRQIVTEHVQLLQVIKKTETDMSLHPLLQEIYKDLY
Description: Agonist activity at human PPARgamma expressed in U2OS cells coexpressing human RXR assessed as luciferase activity at 10 uM after 24 hrs by transactivation assay relative to control. The format is cell-based.

Data set [7] concerns HepG2. In words: Induction of glucose consumption in human HepG2 cells at 10^-5 M after 24 hrs by glucose oxidase method (reference value: 2 +/- 0.09 mM). The format is functional.
Data set [8] has as its system HepG2. In words: Induction of glucose consumption in human HepG2 cells at 10^-5 M after 24 hrs by glucose oxidase method relative to control. The format is functional.
Data set [9] deals with Mus musculus. In words: Toxicity in eight week old female db/db mouse assessed as effect on body weight at 30 mg/kg, intragastric for 3 weeks. More on the design: dose 30 mg/kg, route intragastric. The note with it: in vivo, po, 504 h. Format: organism-based.
Data set [10] relates to HepG2. Description: Induction of glucose consumption in human HepG2 cells at 10^-7 M after 24 hrs by glucose oxidase method relative to control. The format is functional.
For data set [11], the system named is HepG2. Description: Induction of glucose consumption in human HepG2 cells at 10^-6 M after 24 hrs by glucose oxidase method relative to control. The format is functional.
Data set [12] deals with HepG2. In words: Induction of glucose consumption in human HepG2 cells at 10^-3 M after 24 hrs by glucose oxidase method relative to control. Format: functional.
The subject of data set [13] is HepG2. Description: Induction of glucose consumption in human HepG2 cells at 10^-3 M after 24 hrs by glucose oxidase method (reference value: 2 +/- 0.09 mM). The format is functional.
Data set [14] has as its system Mus musculus. In words: Reduction in total cholesterol level in eight week old female db/db mouse at 30 mg/kg, intragastric for 3 weeks. The format is functional, organism-based. Also on record: dose 30 mg/kg.

Calls of active or inactive are those of the source. The rule behind the calls is not given here.

As for `CCc1ccc(CCOc2ccc(CC3SC(=O)NC3=O)cc2)nc1` (stereo not drawn) [PIOGLITAZONE], the results for the inhibition in vivo at 30 mg/kg with Mus musculus [1], with Mus musculus [4] and in the data set with Mus musculus [5] were greater than 25%, greater than 30% and 30.6%, respectively. For the same compound, the inhibition result with Mus musculus [2] was “Active”. In addition, the Activity with Mus musculus [3] is listed as 16.3%.

`C[C@@H]1[C@@H](CC(=O)O)c2cc(OCc3ccccc3)ccc2N1S(=O)(=O)c1ccc(Cl)cc1`: the Ratio in data set [6] stood at 2.37. The Activity in the data set on HepG2 [7] is 2.33 mM; in the data set with HepG2 [8], 16.3%.

Consider `Cc1c(CC(=O)O)c2cc(OCc3ccccc3)ccc2n1C(=O)c1ccc(Cl)cc1`, for which the inhibition in vivo (as a rule, the percentage by which the read-out fell short of the control) at 30 mg/kg is greater than 25% with Mus musculus [1], greater than 30% in the data set with Mus musculus [4] and 13.5% in the data set with Mus musculus [5]. The Ratio in data set [6] turned out to be 3.82. Moreover, the results for the Activity in the data set with HepG2 [7] and in the data set with HepG2 [8] were 2.44 mM and 21.9%, respectively.

Consider `Cc1c(CCC(=O)O)c2cc(OCc3ccccc3)ccc2n1C(=O)c1ccc(Cl)cc1`, for which the Activity entry in the data set on Mus musculus [9] was “Non-toxic”; in the data set on HepG2 [10], 19.2%; in the data set on HepG2 [7], 2.53 mM; with HepG2 [8] it was 26.1%; in the data set on HepG2 [11], 14.1%. The Ratio in [6] stood at 2.72.

With `C[C@@H]1[C@@H](CC(=O)O)c2cc(OCc3ccccc3)ccc2N1C(=O)Cc1ccc(Cl)cc1`, the Ratio in data set [6] was 2.2. The figures for the Activity in the data set on HepG2 [7] and with HepG2 [8] were 2.35 mM and 17%, respectively.

Regarding `C[C@H]1[C@@H](CC(=O)O)c2cc(OCc3ccccc3)ccc2N1C(=O)c1ccc(Cl)cc1`, the Ratio in data set [6] came out at 1.72. Moreover, the Activity in the data set with HepG2 [7] stood at 2.01 mM; in the data set on HepG2 [8] it was 0.6%.

Turning to `CC(Oc1ccc2c(c1)[C@H](CC(=O)O)[C@@H](C)N2C(=O)c1ccc(Cl)cc1)c1ccccc1` (stereo partly drawn), in data set [6], the Ratio is 1.66. For the same compound, the Activity was found to be 2.2 mM in the data set on HepG2 [7] and 9.8% in the data set on HepG2 [8].

As to `C[C@@H]1[C@@H](CC(=O)O)c2cc(OCc3ccncc3)ccc2N1C(=O)c1ccc(Cl)cc1`, the Ratio in data set [6] was 1.49. In addition, the values for the Activity in the data set on HepG2 [7] and in the data set with HepG2 [8] were 1.7 mM and -15.4%, respectively.

`C[C@@H]1[C@@H](CC(=O)O)c2cc(OCc3ccccc3)ccc2N1C(=O)c1ccc(Cl)cc1`: the Ratio in [6] turned out to be 3.51. The Activity is on record as 2.4 mM in the data set with HepG2 [7] and 20% in the data set on HepG2 [8].

Turning to `C[C@@H]1[C@@H](CC(=O)O)c2cc(OCc3ccccc3)ccc2N1C(=O)c1ccncc1`, the Ratio in data set [6] worked out at 1.73. In addition, the Activity in the data set with HepG2 [10] is recorded as -4.1%; with HepG2 [7], 2.46 mM; in the data set on HepG2 [8], 22.6%; in the data set on HepG2 [11], -4.6%. For the same compound, in the data set on Mus musculus [2], the inhibition result was “Active”. Further, the values for the inhibition in vivo at 30 mg/kg in the data set on Mus musculus [4] and with Mus musculus [5] were greater than 30% and 14.9%, respectively.

Consider `C[C@@H]1[C@@H](CC(=O)O)c2cc(OCc3ccccc3)ccc2N1C(=O)c1ccc(C(F)(F)F)cc1`, for which, in data set [6], the Ratio came out at 1.72. The Activity is 2.2 mM in the data set on HepG2 [7] and 9.8% in the data set on HepG2 [8].

`C[C@@H]1[C@@H](CC(=O)O)c2cc(OCCc3ccccc3)ccc2N1C(=O)c1ccc(Cl)cc1`: the Ratio in data set [6] was 2. In addition, the Activity with HepG2 [7] was determined as 2.05 mM; with HepG2 [8] it was 2.1%.

With `C[C@@H]1[C@@H](CC(=O)O)c2cc(OCc3ccccc3)ccc2N1C(=O)c1ccc(F)cc1`, in data set [6], the Ratio amounted to 1.74. For the same compound, the Activity came to 2.24 mM with HepG2 [7] and 11.6% in the data set with HepG2 [8].

Take `C[C@@H]1[C@@H](CC(=O)O)c2cc(OCc3cccnc3)ccc2N1C(=O)c1ccc(Cl)cc1`: the Ratio in data set [6] turned out to be 1.62. Also, the Activity in the data set with HepG2 [7] is reported as 1.87 mM; with HepG2 [8], -6.7%.

As for `C[C@@H]1[C@@H](CC(=O)O)c2cc(OCc3ccccc3)ccc2N1C(=O)C12CC3CC(CC(C3)C1)C2`, the Activity entry in the data set on Mus musculus [9] is “Non-toxic”; with HepG2 [7] it was 2.1 mM; in the data set on HepG2 [8], 4.8%. Further, in data set [6], the Ratio is 1.63.

In the case of `C[C@@H]1[C@@H](CC(=O)O)c2cc(OCCCCc3ccccc3)ccc2N1C(=O)c1ccc(Cl)cc1`, the Ratio in [6] is 1.81. Moreover, the Activity was 1.98 mM in the data set on HepG2 [7] and -1.2% with HepG2 [8].

As to `COc1ccc(CC(=O)N2c3ccc(OCc4ccccc4)cc3[C@H](CC(=O)O)[C@H]2C)cc1OC`, the Ratio in data set [6] stood at 2. Besides, the Activity with HepG2 [7] stood at 2.2 mM; in the data set on HepG2 [8] it was 9.9%.

As to `COc1ccc(C(=O)N2c3ccc(OCc4ccccc4)cc3[C@H](CC(=O)O)[C@H]2C)cc1`, the Ratio in data set [6] was 2.14. Also, the Activity came out at 2.22 mM with HepG2 [7] and 10.8% in the data set with HepG2 [8].

As to `CN(CCOc1ccc(CC2SC(=O)NC2=O)cc1)c1ccccn1` (stereo not drawn) [ROSIGLITAZONE], the figures for the Activity in the data set with HepG2 [7] and in the data set with HepG2 [8] were 2.53 mM and 26.5%, respectively.

In the case of `Cc1c(CCCC(=O)O)c2cc(OCc3ccccc3)ccc2n1C(=O)c1ccc(Cl)cc1`, the Activity result with Mus musculus [9] was “Non-toxic”; in the data set on HepG2 [10] it was 12.5%; in the data set on HepG2 [7] it was 2.55 mM; in the data set on HepG2 [8] it was 27.3%; in the data set with HepG2 [11] it was 8.3%. Further, the Ratio in data set [6] was 3.28.

For `C[C@@H]1[C@@H](CC(=O)O)c2cc(OCc3ccccc3)ccc2N1C(=O)c1ccc(C#N)cc1`, the Ratio in [6] was 2.05. Moreover, the Activity with HepG2 [7] amounted to 2.26 mM; with HepG2 [8] it was 12.6%.

Regarding `Cc1c(CCC(=O)O)c2cc(OCc3ccccc3)ccc2n1S(=O)(=O)c1ccc(Cl)cc1`, the Ratio in data set [6] stood at 2.48. Besides, the Activity was 17.7% with HepG2 [10], 2.45 mM in the data set on HepG2 [7], 22.1% in the data set with HepG2 [8] and 10.5% in the data set on HepG2 [11].

Take `CN(C)C(=N)NC(=N)N` [METFORMIN]: the Activity with HepG2 [12] is 51%; in the data set with HepG2 [13], 3.03 mM.

In the case of `C[C@@H]1[C@@H](CC(=O)O)c2cc(OCc3ccccc3)ccc2N1C(=O)c1ccccc1`, in data set [6], the Ratio came out at 2.05. Further, the Activity with HepG2 [7] is listed as 2.14 mM; in the data set on HepG2 [8], 6.9%.

In the case of `Cc1c(CCCC(=O)O)c2cc(OCc3ccccc3)ccc2n1S(=O)(=O)c1ccc(Cl)cc1`, the inhibition entry with Mus musculus [14] was “Active”. The Activity entry with Mus musculus [9] is “Non-toxic”; with HepG2 [10], 18.2%; with HepG2 [7], 2.78 mM; in the data set on HepG2 [8] it was 38.9%; in the data set on HepG2 [11], 15.3%. Besides, the figures for the inhibition in vivo at 30 mg/kg in the data set on Mus musculus [1] and in the data set on Mus musculus [5] were greater than 25% and 13.9%, respectively. Also, the Ratio in [6] turned out to be 2.44.
